2 compounds from ChEMBL document CHEMBL5620347, “Discovery of thiohydantoin based antagonists of androgen receptor with efficient degradation for the treatment of prostate cancer” (Eur J Med Chem, 2023) can be followed below.

pIC50: −log10 of the molar value.

The pIC50 is −log10 of the IC50, conventionally taken in molar units. Low values mean a high IC50, high ones a low IC50. Usually half-life stands for how long it takes for the measured level to halve. By clearance is commonly meant the volume of plasma or blood freed of the substance per unit of time. The term CL/F denotes the apparent clearance, not corrected for the fraction that reaches the circulation. By AUC(0-inf) is commonly meant total exposure, with the tail of the curve extrapolated. Read a high AUC(0-inf) as more exposure. One may read the bioavailability as dose-corrected exposure relative to a reference, in per cent. Lower therefore signals poor availability. The term Cmax denotes the highest concentration seen after dosing. Broadly, the AUC is the area under the concentration-time curve, a measure of exposure. Read a high AUC as high exposure.

Data set [1] has as its system CWR22R. The data set can be described thus: Antitumor activity against human 22Rv1 cells xenografted in BALB/c nude mouse assessed as tumor growth inhibition at 30 mg/kg, ip measured every 2 days for 28 days relative to control. Particulars: 22Rv1, 672 h, read-out: TGI.
Data set [2] concerns DU-145. Nature of the data set: cells. The note with it: Homo sapiens, DU-145, 72 h.
Description: Cytotoxicity against androgen receptor independent human DU-145 cells assessed as inhibition of cell growth incubated for 72 hrs by MTT assay
In data set [3] the test system is LNCaP. Nature of the data set: cells. The note with it: Homo sapiens, 72 h.
Description: Cytotoxicity against androgen receptor dependent human LNCaP cells assessed as inhibition of cell growth incubated for 72 hrs by MTT assay
Data set [4] deals with LNCaP. The data set can be described thus: Antitumor activity against human LNCaP cells xenografted in BALB/c nude mouse assessed as tumor growth inhibition at 30 mg/kg, ip measured every 2 days for 28 days relative to control. The note with it: 672 h, read-out: TGI. (In general: Xenograft models place foreign cells or tissue in a host animal.)
Data set [5] can be described thus: Clearance in Sprague-Dawley rat at 20 mg/kg, po measured upto 1440 mins by LC-MS/MS analysis. Type of data set: ADME, organism-based. The note with it: in vivo, 24 h.
Data set [6] can be described thus: Toxicity in BALB/c mouse assessed as effect on serum ALT level at 30 mg/kg, ip measured after 3 days by biochemical analysis. Format: organism-based. Particulars: in vivo, 72 h, time 3 day.
Data set [7] is described as follows: Toxicity in BALB/c mouse assessed as appearance of lesions in kidney at 30 mg/kg, ip measured after 3 days by H and E staining based analysis. Type of data set: organism-based. The note with it: in vivo, 72 h, time 3 day.
Data set [8] in a line: Toxicity in BALB/c nude mouse xenografted with human LNCaP cells assessed as reduction in body weight at 30 mg/kg, ip measured every 2 days for 28 days. Type of data set: organism-based. The note with it: in vivo, 672 h, time 28 day.
Data set [9] can be described thus: Half life in Sprague-Dawley rat at 20 mg/kg, po measured upto 1440 mins by LC-MS/MS analysis. Type of data set: ADME, organism-based. The note with it: in vivo.
The nature of data set [10]: Clearance in Sprague-Dawley rat at 5 mg/kg, iv measured upto 1440 mins by LC-MS/MS analysis. Type of data set: ADME, organism-based. The note with it: in vivo.
Data set [11] can be described thus: Toxicity in BALB/c mouse assessed as effect on BUN level at 30 mg/kg, ip measured after 3 days by biochemical analysis. Format: organism-based. Particulars: in vivo, 72 h, time 3 day.
Data set [12] is described as follows: Clearance in Sprague-Dawley rat at 20 mg/kg, ip measured upto 1440 mins by LC-MS/MS analysis. The note with it: in vivo. Format: ADME, organism-based.
A short description of data set [13]: Toxicity in BALB/c mouse assessed as effect on serum uric acid level at 30 mg/kg, ip measured after 3 days by biochemical analysis. Format: organism-based. The note with it: in vivo, 72 h, time 3 day.
Data set [14] is described as follows: AUC (0 to infinity) in Sprague-Dawley rat at 20 mg/kg, ip measured upto 1440 mins by LC-MS/MS analysis. Format: ADME, organism-based. Particulars: in vivo.
Data set [15] can be described thus: Oral bioavailability in Sprague-Dawley rat at 20 mg/kg measured upto 1440 mins by LC-MS/MS analysis. Particulars: in vivo. Format: ADME, organism-based.
A short description of data set [16]: Toxicity in BALB/c mouse assessed as effect on creatinine level at 30 mg/kg, ip measured after 3 days by biochemical analysis. Particulars: in vivo, 72 h, time 3 day. Type of data set: organism-based.
Data set [17] can be described thus: Toxicity in BALB/c mouse assessed as appearance of lesions in liver at 30 mg/kg, ip measured after 3 days by H and E staining based analysis. Format: organism-based. The note with it: in vivo, 72 h, time 3 day.
Data set [18] is described as follows: Cmax in Sprague-Dawley rat at 20 mg/kg, po measured upto 1440 mins by LC-MS/MS analysis. The note with it: in vivo. Type of data set: ADME, organism-based.
A short description of data set [19]: Volume of distribution at steady state in Sprague-Dawley rat at 20 mg/kg, po measured upto 1440 mins by LC-MS/MS analysis. The note with it: in vivo, 24 h. Format: ADME, organism-based.
Data set [20] in a line: Half life in Sprague-Dawley rat at 5 mg/kg, iv measured upto 1440 mins by LC-MS/MS analysis. Format: ADME, organism-based. The note with it: in vivo.
Data set [21] is described as follows: Toxicity in BALB/c mouse assessed as appearance of lesions in heart at 30 mg/kg, ip measured after 3 days by H and E staining based analysis. Format: organism-based. Particulars: in vivo, 72 h, time 3 day.
Data set [22] can be described thus: Bioavailability in Sprague-Dawley rat at 20 mg/kg, ip measured upto 1440 mins by LC-MS/MS analysis. Format: ADME, organism-based. The note with it: in vivo.
A short description of data set [23]: AUC (0 to infinity) in Sprague-Dawley rat at 5 mg/kg, iv measured upto 1440 mins by LC-MS/MS analysis. Type of data set: ADME, organism-based. The note with it: in vivo.
The nature of data set [24]: AUC (0 to infinity) in Sprague-Dawley rat at 20 mg/kg, po measured upto 1440 mins by LC-MS/MS analysis. Type of data set: ADME, organism-based. Particulars: in vivo, 24 h.
The nature of data set [25]: Volume of distribution at steady state in Sprague-Dawley rat at 20 mg/kg, ip measured upto 1440 mins by LC-MS/MS analysis. The note with it: in vivo, 24 h. Type of data set: ADME, organism-based.
Data set [26] is described as follows: Toxicity in BALB/c mouse assessed as appearance of lesions in lung at 30 mg/kg, ip measured after 3 days by H and E staining based analysis. Format: organism-based. The note with it: in vivo, 72 h, time 3 day.
The nature of data set [27]: Toxicity in BALB/c mouse assessed as effect on serum AST level at 30 mg/kg, ip measured after 3 days by biochemical analysis. Format: organism-based. Particulars: in vivo, 72 h, time 3 day.
Data set [28] can be described thus: Toxicity in BALB/c nude mouse xenografted with human 22Rv1 cells assessed as reduction in body weight at 30 mg/kg, ip measured every 2 days for 28 days. Type of data set: organism-based, CWR22R. Particulars: in vivo, 672 h, time 28 day.
The nature of data set [29]: Volume of distribution at steady state in Sprague-Dawley rat at 5 mg/kg, iv measured upto 1440 mins by LC-MS/MS analysis. Format: ADME, organism-based. Particulars: in vivo, read-out: Vdss.
The nature of data set [30]: Toxicity in BALB/c mouse assessed as appearance of lesions in spleen at 30 mg/kg, ip measured after 3 days by H and E staining based analysis. Format: organism-based. The note with it: in vivo, 72 h, time 3 day.

With `CNC(=O)c1ccc(N2C(=S)N(c3ccc(C#N)c(C(F)(F)F)c3)C(=O)C2(C)C)cc1F` [ENZALUTAMIDE], the inhibition in vivo at 30 mg/kg in [1] stood at 39.9%; in data set [4], 41.5%. The pIC50 in data set [2] was less than 4.30; in [3], 4.86.

For `N#Cc1ccc(N2C(=O)CN(CCCN3CCCc4ccccc43)C2=S)cc1C(F)(F)F`, the CL in data set [5] worked out at 84.8 mL/min/kg. Also, the Activity entry in [6], in [7], in data set [8], in data set [11], in data set [13] and in data set [16] was “Non-Toxic” in each case. Besides, the Activity result in data set [17], in [21], in [26], in [27], in data set [28] and in [30] was “Non-Toxic” in each case. Moreover, the half-life in data set [9] is 3.06 h; in data set [20], 5.02 h. This compound also gave a clearance in [10] of 15.7 mL/min/kg. Further, the apparent clearance CL/F in [12] was 60.2 mL/min/kg. The results for the AUC(0-inf) in data set [14] and in data set [23] were 9160 ng·h/mL and 3500 ng·h/mL, respectively. In addition, the bioavailability in data set [15] stood at 5.74%; in data set [22] it was 67.2%. Moreover, the highest concentration (Cmax) in data set [18] came to 92.1 ng/mL. The values for the Vdss in [19] and in data set [25] were 16.72 L/kg and 8.77 L/kg, respectively. For the same compound, in data set [24], the AUC was 805.18 ng·h/mL. For the same compound, the Vd in [29] came to 6.9 L/kg.
